# Experimental data from patent US8022055B2, “Betulinic acid derivatives” (Dabur Pharma Limited, priority 2005, dated 2011).
# Experiments:
# NIH 3T3 cells = test: NIH3T3 cytotoxicity test (72 h MTT assay); format: cell-based; conditions: NIH3T3, 72 hours
# Protocol: The cytotoxic effect of chemicals upon NIH 3T3 cells in culture is measured by cell metabolism determination using the previously described MIT assay. Healthy NIH 3T3 cells (an established cell-line), when maintained in culture continuously divide and multiply over time. The basis of this test is that a cytotoxic chemical (regardless of site or mechanism of action) will interfere with this process and, thus, result in a reduction of the growth rate as reflected by cell number. The degree of inhibition of growth, related to the concentration of the test compound, provides an indication of toxicity.
# The NIH 3T3 cells are maintained in culture and exposed to test compounds over a range of concentrations and the number of viable cells determined after 72 hours exposure by MIT assay. The number of cells in the presence of test chemicals are compared to that observed in control cultures and the percent inhibition of growth calculated. The IC50 concentration (i.e. the concentration producing 50% inhibition of growth) is determined and expressed as μg/ml. A ratio of IC50 of NIH 3T3 cells to tumor cells is an indicator of predicted toxicity of the molecule and is represented as “Safety Index”. The higher the value, the better is the predicted safety of the molecule.
# PA1 = test: three day MTT cytotoxicity assay, PA1; format: cell-based, human; conditions: PA1, 72 hours
# DU145 = test: three day MTT cytotoxicity assay, DU145; format: cell-based, human; conditions: DU145, 72 hours
# Protocol: (§1) A number of compounds listed in Table-3 were tested for cytotoxicity against prostate, lung, laryngeal, pancreas, breast, colon and ovarian cancer, leukemia and lymphoma, human tumor cell lines. Briefly, a three day MTT cytotoxicity assay was performed, which is based on the principle of uptake of MTT (3-(4,5-dimethylthiazol-2-yl)-2,5-diphenyl tetrazolium bromide), a tetrazolium salt, by the metabolically active cells where it is metabolized by active mitochondria into a blue colored formazan product that is read spectrophotometrically. MIT was dissolved in phosphate buffered saline with a pH of 7.4 to obtain an MIT concentration of 5 mg/ml; the resulting mixture was filtered through a 0.22-micron filter to sterilize and remove a small amount of insoluble residue. For each type of tumor cell, 10,000 to 15,000 cells were seeded in a 96-well culture plate and incubated with the individual betulinic acid derivatives in a CO2 incubator for a total of 72 hours. Control cells not treated with the betulinic acid derivatives were similarly incubated. The assay was terminated by adding 100 μg (20 μl) of MIT to each well then incubating for additional one hour, and finally adding 50 μl of 10% SDS-0.01N HCl to each well to lyse the cells and dissolve formazan. After incubating for one hour, the plate was read spectrophotometrically at 540 nm and the percentage of cytotoxicity calculated using the following formula: Cytotoxicity percentage=100×[1−(X/R1)], where X=(absorbance of treated sample at 540 nm)−(absorbance of blank at 540 nm) R1=absorbance of control sample at 540 nm. The IC50 Values of the cytotoxicity defined as the concentration at which 50% of the cells are killed in vitro was calculated for each cell line treated with each of the betulinic acid derivatives.
# SW620 = test: three day MTT cytotoxicity assay, SW620; format: cell-based, human; conditions: SW620, 72 hours
# Protocol: Briefly, a three day MTT cytotoxicity assay was performed, which is based on the principle of uptake of MTT (3-(4,5-dimethylthiazol-2-yl)-2,5-diphenyl tetrazolium bromide), a tetrazolium salt, by the metabolically active cells where it is metabolized by active mitochondria into a blue colored formazan product that is read spectrophotometrically. MIT was dissolved in phosphate buffered saline with a pH of 7.4 to obtain an MIT concentration of 5 mg/ml; the resulting mixture was filtered through a 0.22-micron filter to sterilize and remove a small amount of insoluble residue. For each type of tumor cell, 10,000 to 15,000 cells were seeded in a 96-well culture plate and incubated with the individual betulinic acid derivatives in a CO2 incubator for a total of 72 hours. Control cells not treated with the betulinic acid derivatives were similarly incubated. The assay was terminated by adding 100 μg (20 μl) of MIT to each well then incubating for additional one hour, and finally adding 50 μl of 10% SDS-0.01N HCl to each well to lyse the cells and dissolve formazan. After incubating for one hour, the plate was read spectrophotometrically at 540 nm and the percentage of cytotoxicity calculated using the following formula: Cytotoxicity percentage=100×[1−(X/R1)], where X=(absorbance of treated sample at 540 nm)−(absorbance of blank at 540 nm) R1=absorbance of control sample at 540 nm. The IC50 Values of the cytotoxicity defined as the concentration at which 50% of the cells are killed in vitro was calculated for each cell line treated with each of the betulinic acid derivatives.
# HBL100 = test: three day MTT cytotoxicity assay, HBL100; format: cell-based, human; conditions: for IC50 for cell lines HBL100: HBL100, 72 hours, MTT; for Specific Index (SI) for cell lines HBL100: ratio of IC50 of NIH 3T3 cells to HBL100
# Miapaca = test: three day MTT cytotoxicity assay, Miapaca; format: cell-based, human; conditions: for IC50 for cell lines Miapaca: 72 hours, MTT; for Specific Index (SI) for cell lines Miapaca: ratio of IC50 of NIH 3T3 cells to Miapaca
# Protocol: as §1
# A549 = test: three day MTT cytotoxicity assay, A549; format: cell-based, human; conditions: for IC50 for cell lines A549: A549, 72 hours, MTT; for Specific Index (SI) for cell lines A549: ratio of IC50 of NIH 3T3 cells to A549
# Protocol: as §1
# K562 = test: three day MTT cytotoxicity assay, K562; format: cell-based, human; conditions: for IC50 for cell lines K562: K562, 72 hours, MTT; for Specific Index (SI) for cell lines K562: ratio of IC50 of NIH 3T3 cells to K562
# Protocol: as §1
Compound,IC50 for cell lines NIH3T3 (NIH 3T3 cells),IC50 for cell lines PA1 (PA1),IC50 for cell lines DU145 (DU145),IC50 for cell lines SW620 (SW620),IC50 for cell lines HBL100 (HBL100),IC50 for cell lines Miapaca (Miapaca),IC50 for cell lines A549 (A549),IC50 for cell lines K562 (K562),Specific Index (SI) for cell lines HBL100 (HBL100),Specific Index (SI) for cell lines Miapaca (Miapaca),Specific Index (SI) for cell lines A549 (A549),Specific Index (SI) for cell lines K562 (K562)
"28-O-Pivaloyoxymethyl-2,3-didehydroindolo[2′,3′:2,3]betulinate [Compound 17]",>20 µg/mL,>20 µg/mL,>20 µg/mL,>20 µg/mL,>20 µg/mL,>20 µg/mL,>20 µg/mL,>20 µg/mL,–,–,–,–
"C=C(C)[C@@H]1CC[C@]2(C(=O)O)CC[C@]3(C)[C@H](CC[C@@H]4[C@@]5(C)Cc6c([nH]c7ccccc67)C(C)(C)[C@@H]5CC[C@]43C)[C@@H]12 [Compound 1, 2,3-Didehydroindolo[2′,′:2,3]betulinic acid]",6.9 ± 0.76 µg/mL,6.01 µg/mL,8.86 µg/mL,5.151 µg/mL,10.3 ± 0.9 µg/mL,6.7 ± 0.59 µg/mL,7.6 ± 0.57 µg/mL,10.05 ± 0.61 µg/mL,0.669,1.029,0.907,0.68
"CC(C)[C@@H]1CC[C@]2(C(=O)O)CC[C@]3(C)C(CCC4[C@@]5(C)Cc6c([nH]c7ccccc67)C(C)(C)C5CC[C@]43C)C12 (stereo partly shown) [Compound 2, 2,3-Didehydro-20,29-dihydroindolo[2′,3′:2,3]betulinic acid]",>20 µg/mL,>20 µg/mL,>20 µg/mL,>20 µg/mL,>20 µg/mL,>20 µg/mL,>20 µg/mL,15.07 ± 2.15 µg/mL,–,–,–,–
"CC(C)[C@@H]1CC[C@]2(C(=O)O)CC[C@]3(C)[C@H](CC[C@@H]4[C@@]5(C)Cc6c([nH]c7ccc(Cl)cc67)C(C)(C)[C@@H]5CC[C@]43C)[C@@H]12 [Compound 6, 5′-Chloro-2,3-didehydro-20,29-dihydroindolo[2′,′:2,3]betulinic acid]",19.03 ± 0.21 µg/mL,6.6 µg/mL,6.5 µg/mL,5.9 µg/mL,>20 µg/mL,15.19 ± 1.06 µg/mL,8.8 ± 0.74 µg/mL,>20 µg/mL,<0.951,1.252,2.163,<0.952
"C=C(C)[C@@H]1CC[C@]2(C(=O)O)CC[C@]3(C)[C@H](CC[C@@H]4[C@@]5(C)Cc6c([nH]c7c(Cl)cccc67)C(C)(C)[C@@H]5CC[C@]43C)[C@@H]12 [Compound 9, 7′-Chloro-2,3-didehydroindolo[2′,′:2,3]betulinic acid]",11.8 ± 0.19 µg/mL,6.39 µg/mL,11.66 µg/mL,2.008 µg/mL,11.8 ± 0.35 µg/mL,11.6 ± 0.49 µg/mL,8.7 ± 0.19 µg/mL,9.26 ± 1.6 µg/mL,1,1.017,1.356,1.274
